The text below walks through data of paper PMC4324364 (MedChemComm, 2014).

Data set [1] relates to HepG2 cell line. As to the kind of experiment: HepG2 host cell toxicity. Format: cell-based, human.
Data set [2] deals with T. brucei. As to the kind of experiment: T. brucei cell growth inhibition. Format: cell-based, Trypanosoma brucei.
The next data set can be described thus: Metabolic stability. To be noted: in vitro ADME assays.
Another data set deals with L. major amastigotes. The note with it: read-out: L. major Amast EC50, previously reported data; cited from earlier work.
Data set [3] relates to HepG2 cell line. To be noted: compound marked as previously reported data; cited from earlier work.
Another data set has as its system L. major promastigotes. The note with it: read-out: L. major Promast EC50, previously reported data; cited from earlier work.
For data set [4], the system named is P. falciparum (D6 strain). To be noted: read-out: P. falciparum D6 EC50, previously reported data; cited from earlier work.
The test system of data set [5] is T. brucei. The note with it: cited from earlier work.
For data set [6] the following is noted: cited from earlier work.
Data set [7] has as its system T. brucei. The note with it: read-out: T. brucei EC50; previously reported data, same assay; cited from earlier work.
The conditions of data set [8]: cited from earlier work. This is another data set of the same source.
A further data set deals with T. cruzi. The note with it: read-out: T. cruzi EC50; previously reported data, same assay; cited from earlier work.

The EC50 is the concentration needed to bring the measured effect to its halfway point.

Structures are written as SMILES. Read-outs that look alike come from different tables or passages of the source. Where only a bound is given, the exact number is not on record here.

For the compound `Fc1cccc(COc2ccc(Nc3ncnc4sc(-c5ccccc5)cc34)cc2Cl)c1` [18b], the “HepG2 TC50 (concentration leading to 50% growth inhibition of host cells)” value in the data set with HepG2 cell line [1] turned out to be 10.0 µM.
On to `Fc1cccc(COc2ccc(Nc3ncnc4cc(C#C[C@@H]5CCCN5)sc34)cc2Cl)c1` [GW837016X], for which the “potency against T. brucei (in words)” value in the data set with T. brucei [2] is recorded as “potent”.
Regarding `Cc1cc(-c2cc3ncnc(Nc4ccc(OCc5cccc(F)c5)c(Cl)c4)c3s2)cnc1N1CCOCC1` [11e], the metabolic stability result in “Metabolic stability” was “modest”.
For `Fc1cccc(COc2ccc(Nc3ncnc4ccc(-c5ccc(N6CCOCC6)cc5)cc34)cc2Cl)c1` [4k], the EC50 in the data set with L. major amastigotes is above 15 µM. Moreover, the “HepG2 TC50 (concentration leading to 50% growth inhibition of host cells)” value in the data set on HepG2 cell line [3] is 9.6 µM.
With `Fc1cccc(COc2ccc(Nc3ncnc4ccc(-c5cccc(N6CCOCC6)c5)cc34)cc2Cl)c1` [compound 2], the EC50 with L. major promastigotes was 2.97 µM; in data set [4] it was 0.23 µM; with T. brucei [7], 0.042 ± 0.01 µM; with T. cruzi, 1.8 ± 0.9 µM. Besides, the “effect on parasitemia and life extension” value in the data set on T. brucei [5] (murine T. brucei bloodstream infection) is listed as “modest effect”. Moreover, the “central nervous system exposure” value in [6] is “lack of central nervous system exposure”. Moreover, in [6] (mice), the oral bioavailability entry is recorded as “orally bioavailable”. In addition, the plasma protein binding in [8] was above 99%. The metabolic stability result in the data set “Metabolic stability” is recorded as “modest”.
With `Fc1cccc(COc2ccc(Nc3ncnc4ccc(-c5ccc(CN6CCOCC6)cc5)cc34)cc2Cl)c1` [4j], the “HepG2 TC50 (concentration leading to 50% growth inhibition of host cells)” value in the data set on HepG2 cell line [3] was 12.9 µM.
With `Fc1cccc(COc2ccc(Nc3ncnc4ccc(-c5ccccc5)cc34)cc2Cl)c1` [4b], the EC50 in the data set on L. major amastigotes was above 15 µM. Besides, in the data set with HepG2 cell line [3], the “HepG2 TC50 (concentration leading to 50% growth inhibition of host cells)” value was 4.9 µM.
Take `CS(=O)(=O)CCNCc1ccc(-c2ccc3ncnc(Nc4ccc(OCc5cccc(F)c5)c(Cl)c4)c3c2)o1` [compound 1, lapatinib, reference compound]: the “cure of infected mice” value with T. brucei [5] (murine model of HAT) is given as 25%.
